Active and inactive are the calls of the source. The calls are words filed in the database; no cut-off is given here.
How the values were obtained:
[1] = target: T1, Trace amine-associated receptor 1 (Homo sapiens, UniProt Q96RJ0); test: Agonist activity at human TAAR1 extracted from CHO-K1 cell membrane coexpressing AGTRL1/Gi by cAMP assay; format: functional, cell membranes
T1 sequence (Q96RJ0 whole entry): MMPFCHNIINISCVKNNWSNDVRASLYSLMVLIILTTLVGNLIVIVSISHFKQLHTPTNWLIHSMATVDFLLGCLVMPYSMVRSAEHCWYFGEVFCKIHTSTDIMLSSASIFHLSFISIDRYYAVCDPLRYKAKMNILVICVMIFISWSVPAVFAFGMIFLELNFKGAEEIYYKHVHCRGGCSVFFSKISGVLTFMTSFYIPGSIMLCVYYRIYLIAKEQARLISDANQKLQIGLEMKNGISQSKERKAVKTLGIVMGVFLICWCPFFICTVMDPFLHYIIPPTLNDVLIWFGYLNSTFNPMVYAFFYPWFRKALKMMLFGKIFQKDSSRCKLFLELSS

[2] = Metabolic stability in rat liver microsomes assessed as intrinsic clearance at 1 uM incubated for 60 mins by LC-MS/MS analysis; format: ADME, Microsome; settings: read-out: CLH
[3] = target: Cytochrome P450 1A2 (Homo sapiens, UniProt P05177); test: Inhibition of CYP1A2 in human liver microsomes in presence of NADPH by LC-MS/MS analysis; format: ADME, Microsome
Cytochrome P450 1A2, sequence (P05177 whole entry): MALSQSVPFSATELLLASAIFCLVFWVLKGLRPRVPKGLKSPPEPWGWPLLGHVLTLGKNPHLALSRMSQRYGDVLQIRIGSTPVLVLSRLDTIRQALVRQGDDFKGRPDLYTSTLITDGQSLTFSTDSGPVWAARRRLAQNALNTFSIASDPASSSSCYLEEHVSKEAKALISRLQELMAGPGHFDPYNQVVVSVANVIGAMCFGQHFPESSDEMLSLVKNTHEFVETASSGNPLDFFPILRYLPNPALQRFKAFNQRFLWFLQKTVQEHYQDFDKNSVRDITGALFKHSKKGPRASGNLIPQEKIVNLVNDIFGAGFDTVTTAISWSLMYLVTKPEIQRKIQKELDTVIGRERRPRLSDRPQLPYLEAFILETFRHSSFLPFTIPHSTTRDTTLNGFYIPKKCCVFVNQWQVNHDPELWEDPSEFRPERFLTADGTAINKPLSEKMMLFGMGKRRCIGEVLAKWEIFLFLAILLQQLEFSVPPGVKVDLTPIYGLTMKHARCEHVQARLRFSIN

[4] = tested on: Mus musculus; test: Antipsychotic activity against methamphetamine-induced hyperlocomotion in male C57BL/6J mouse model assessed as reduction in hyperlocomotive state at 10 mg/kg, IG pretreated with compound followed by methamphetamine addition and measured after 30 mins by open field test; format: functional, organism-based
[5] = target: Trace amine-associated receptor 1 (Mus musculus) (UniProt Q923Y8); test: Agonist activity at mouse TAAR1 by measuring maximum efficacy relative to control; format: functional; settings: filed as agonist
Trace amine-associated receptor 1 (Mus musculus), sequence (Q923Y8 whole entry): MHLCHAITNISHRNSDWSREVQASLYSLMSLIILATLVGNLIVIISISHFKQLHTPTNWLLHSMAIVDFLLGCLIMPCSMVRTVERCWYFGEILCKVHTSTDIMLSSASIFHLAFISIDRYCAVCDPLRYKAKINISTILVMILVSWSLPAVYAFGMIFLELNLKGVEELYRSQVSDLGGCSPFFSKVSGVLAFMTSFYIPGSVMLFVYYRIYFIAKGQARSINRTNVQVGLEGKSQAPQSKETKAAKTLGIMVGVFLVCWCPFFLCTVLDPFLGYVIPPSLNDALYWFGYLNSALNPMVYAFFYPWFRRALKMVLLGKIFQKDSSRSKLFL

[6] = target: 5-hydroxytryptamine receptor 2C (Rattus norvegicus) (UniProt P08909); test: Agonist activity at rat 5-HT2CR by measuring maximum efficacy relative to control; format: functional; settings: filed as agonist
5-hydroxytryptamine receptor 2C (Rattus norvegicus), sequence (P08909 whole entry): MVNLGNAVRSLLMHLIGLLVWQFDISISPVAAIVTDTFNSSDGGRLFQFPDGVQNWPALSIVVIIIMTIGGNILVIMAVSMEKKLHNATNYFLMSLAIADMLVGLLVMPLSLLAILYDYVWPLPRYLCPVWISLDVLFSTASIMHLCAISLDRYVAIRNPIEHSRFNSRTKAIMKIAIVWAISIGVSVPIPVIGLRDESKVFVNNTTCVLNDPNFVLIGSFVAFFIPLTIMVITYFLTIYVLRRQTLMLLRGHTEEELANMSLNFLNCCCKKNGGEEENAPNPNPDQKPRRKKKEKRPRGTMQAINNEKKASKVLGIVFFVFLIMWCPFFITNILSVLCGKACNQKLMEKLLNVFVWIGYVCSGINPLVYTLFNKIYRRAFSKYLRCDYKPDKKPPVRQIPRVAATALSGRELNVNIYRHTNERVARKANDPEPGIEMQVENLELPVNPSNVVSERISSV

[7] = target: 5-hydroxytryptamine receptor 1A (Homo sapiens, UniProt P08908); test: Agonist activity at human 5-HT1A expressed in CHO cells coexpressing Galpha15 by FLIPR calcium assay; format: functional, cell-based
5-hydroxytryptamine receptor 1A, sequence (P08908 whole entry): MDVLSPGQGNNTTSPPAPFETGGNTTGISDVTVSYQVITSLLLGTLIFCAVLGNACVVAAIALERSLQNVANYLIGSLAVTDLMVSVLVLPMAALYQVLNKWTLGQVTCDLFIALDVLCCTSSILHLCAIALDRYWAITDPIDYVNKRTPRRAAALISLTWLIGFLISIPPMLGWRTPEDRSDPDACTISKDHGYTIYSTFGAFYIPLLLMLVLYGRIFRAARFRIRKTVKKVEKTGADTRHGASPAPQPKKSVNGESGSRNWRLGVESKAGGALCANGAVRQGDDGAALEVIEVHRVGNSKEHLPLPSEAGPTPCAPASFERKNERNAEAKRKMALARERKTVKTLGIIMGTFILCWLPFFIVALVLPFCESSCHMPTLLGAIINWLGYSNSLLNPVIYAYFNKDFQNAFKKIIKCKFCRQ

[8] = target: 5-hydroxytryptamine receptor 2B (Homo sapiens) (UniProt P41595); test: Binding affinity to 5-HT2B (unknown origin) at 10 uM by radioligand binding assay relative to control
5-hydroxytryptamine receptor 2B (Homo sapiens), sequence (P41595 whole entry): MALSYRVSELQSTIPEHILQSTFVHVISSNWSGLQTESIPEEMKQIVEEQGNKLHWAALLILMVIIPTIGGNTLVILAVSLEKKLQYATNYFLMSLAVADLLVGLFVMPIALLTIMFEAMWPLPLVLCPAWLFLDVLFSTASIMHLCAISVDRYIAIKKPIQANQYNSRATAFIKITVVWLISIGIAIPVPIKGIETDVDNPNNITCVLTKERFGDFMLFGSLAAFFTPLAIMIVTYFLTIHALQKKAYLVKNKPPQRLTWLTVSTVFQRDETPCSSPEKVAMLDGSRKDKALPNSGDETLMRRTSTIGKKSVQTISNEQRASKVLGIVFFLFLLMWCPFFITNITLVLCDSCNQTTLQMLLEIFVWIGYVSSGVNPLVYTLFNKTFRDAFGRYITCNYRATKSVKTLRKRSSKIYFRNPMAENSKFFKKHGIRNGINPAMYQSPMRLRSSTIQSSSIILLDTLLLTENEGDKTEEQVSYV

[9] = target: Histamine H2 receptor (Homo sapiens) (UniProt P25021); test: Binding affinity to H2 receptor (unknown origin) at 10 uM by radioligand binding assay relative to control
Histamine H2 receptor (Homo sapiens), sequence (P25021 whole entry): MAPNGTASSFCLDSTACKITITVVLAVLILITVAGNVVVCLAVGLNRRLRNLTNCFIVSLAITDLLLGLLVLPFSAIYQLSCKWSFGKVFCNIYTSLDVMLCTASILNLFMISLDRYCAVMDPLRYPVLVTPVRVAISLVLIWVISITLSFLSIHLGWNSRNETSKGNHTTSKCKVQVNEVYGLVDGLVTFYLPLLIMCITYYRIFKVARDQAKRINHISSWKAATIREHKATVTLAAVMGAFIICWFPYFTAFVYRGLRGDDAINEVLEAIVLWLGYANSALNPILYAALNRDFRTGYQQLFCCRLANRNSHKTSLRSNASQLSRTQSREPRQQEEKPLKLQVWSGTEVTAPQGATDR

[10] = target: Nav1.5 (Homo sapiens, UniProt Q14524); test: Binding affinity to human Nav1.5 receptor at 10 uM by radioligand binding assay relative to control; settings: read-out: Activity
[11] = target: Sodium-dependent noradrenaline transporter (Homo sapiens) (UniProt P23975); test: Binding affinity to NET receptor (unknown origin) at 10 uM by radioligand binding assay relative to control
Sodium-dependent noradrenaline transporter (Homo sapiens), sequence (P23975 whole entry): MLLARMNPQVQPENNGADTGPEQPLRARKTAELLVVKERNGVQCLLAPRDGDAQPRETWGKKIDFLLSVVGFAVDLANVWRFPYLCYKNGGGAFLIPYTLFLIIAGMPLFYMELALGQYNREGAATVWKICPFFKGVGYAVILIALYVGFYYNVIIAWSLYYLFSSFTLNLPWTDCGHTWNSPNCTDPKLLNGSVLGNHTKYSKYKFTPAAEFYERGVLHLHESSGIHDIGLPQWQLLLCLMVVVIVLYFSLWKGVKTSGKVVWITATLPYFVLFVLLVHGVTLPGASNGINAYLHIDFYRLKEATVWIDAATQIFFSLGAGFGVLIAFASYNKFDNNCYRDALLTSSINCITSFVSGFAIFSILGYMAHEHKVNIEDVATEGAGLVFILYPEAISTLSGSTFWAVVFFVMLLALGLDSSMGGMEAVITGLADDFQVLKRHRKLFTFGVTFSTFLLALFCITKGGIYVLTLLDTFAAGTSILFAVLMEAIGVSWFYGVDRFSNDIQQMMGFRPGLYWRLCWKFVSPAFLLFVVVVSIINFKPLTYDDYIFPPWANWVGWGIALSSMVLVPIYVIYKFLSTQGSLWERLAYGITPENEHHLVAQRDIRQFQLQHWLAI

[12] = target: Delta-type opioid receptor (Homo sapiens) (UniProt P41143); test: Binding affinity to op-delta receptor (unknown origin) at 10 uM by radioligand binding assay relative to control
Delta-type opioid receptor (Homo sapiens), sequence (P41143 whole entry): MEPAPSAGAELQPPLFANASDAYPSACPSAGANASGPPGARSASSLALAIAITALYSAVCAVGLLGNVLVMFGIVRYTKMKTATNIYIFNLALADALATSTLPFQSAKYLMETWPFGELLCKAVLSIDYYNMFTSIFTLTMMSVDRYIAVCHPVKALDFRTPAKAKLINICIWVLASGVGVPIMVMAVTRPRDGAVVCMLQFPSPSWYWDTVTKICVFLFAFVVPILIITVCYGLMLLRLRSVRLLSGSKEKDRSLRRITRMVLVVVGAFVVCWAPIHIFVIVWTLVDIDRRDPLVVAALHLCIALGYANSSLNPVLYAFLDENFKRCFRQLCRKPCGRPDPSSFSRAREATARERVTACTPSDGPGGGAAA

[13] = target: cGMP-inhibited 3',5'-cyclic phosphodiesterase 3A (Homo sapiens) (UniProt Q14432); test: Binding affinity to PDE3A receptor (unknown origin) at 10 uM by radioligand binding assay relative to control
cGMP-inhibited 3',5'-cyclic phosphodiesterase 3A (Homo sapiens), sequence (Q14432 whole entry): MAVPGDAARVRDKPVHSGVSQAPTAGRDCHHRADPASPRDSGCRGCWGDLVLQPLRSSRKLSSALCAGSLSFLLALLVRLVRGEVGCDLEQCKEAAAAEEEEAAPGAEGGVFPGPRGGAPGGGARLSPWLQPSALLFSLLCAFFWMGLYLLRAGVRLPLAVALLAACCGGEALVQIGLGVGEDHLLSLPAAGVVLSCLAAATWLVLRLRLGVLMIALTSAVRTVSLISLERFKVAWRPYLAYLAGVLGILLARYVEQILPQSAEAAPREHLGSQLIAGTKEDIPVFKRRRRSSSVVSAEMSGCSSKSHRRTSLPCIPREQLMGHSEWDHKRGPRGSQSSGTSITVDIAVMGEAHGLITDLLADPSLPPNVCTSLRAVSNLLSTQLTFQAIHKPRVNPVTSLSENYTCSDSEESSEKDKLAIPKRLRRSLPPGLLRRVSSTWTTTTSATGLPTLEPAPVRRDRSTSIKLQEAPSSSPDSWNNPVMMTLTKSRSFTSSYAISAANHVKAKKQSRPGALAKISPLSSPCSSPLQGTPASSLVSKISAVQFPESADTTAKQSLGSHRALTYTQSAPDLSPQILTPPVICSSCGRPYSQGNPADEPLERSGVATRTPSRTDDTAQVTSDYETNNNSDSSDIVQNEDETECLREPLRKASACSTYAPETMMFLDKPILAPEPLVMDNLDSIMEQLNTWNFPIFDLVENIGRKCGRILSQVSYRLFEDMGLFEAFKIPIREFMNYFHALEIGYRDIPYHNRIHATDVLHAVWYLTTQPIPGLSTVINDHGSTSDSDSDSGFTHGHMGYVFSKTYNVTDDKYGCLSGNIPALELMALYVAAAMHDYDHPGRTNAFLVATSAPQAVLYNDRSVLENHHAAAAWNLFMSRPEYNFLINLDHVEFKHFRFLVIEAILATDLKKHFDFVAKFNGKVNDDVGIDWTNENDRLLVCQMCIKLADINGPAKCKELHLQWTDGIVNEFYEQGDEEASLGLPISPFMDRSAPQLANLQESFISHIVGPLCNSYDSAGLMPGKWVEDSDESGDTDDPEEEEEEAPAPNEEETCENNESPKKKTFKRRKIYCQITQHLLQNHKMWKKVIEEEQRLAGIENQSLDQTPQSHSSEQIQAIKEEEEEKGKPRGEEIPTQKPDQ

[14] = Toxicity in Sprague-Dawley rat assessed as good general health at 2.5 to 7.5 mg/kg, po administered once daily for 4 weeks and measured after 4 weeks; format: organism-based; settings: in vivo, 1344 h, dose 2.5-7.5 mg/kg, time 8 weeks
[15] = Toxicity in male Sprague-Dawley rat assessed as suppression of body weight gain at 7.5 mg/kg, po administered once daily for 4 weeks and measured weekly twice; format: organism-based; settings: in vivo, 672 h
[16] = Toxicity in male Sprague-Dawley rat assessed as suppression of food consumption at 7.5 mg/kg, po administered once daily for 4 weeks and measured weekly twice; format: organism-based; settings: in vivo, 672 h
[17] = Toxicity in female Sprague-Dawley rat assessed as piloerection at 7.5 mg/kg, po administered once daily for 4 weeks; format: organism-based; settings: in vivo, 672 h
[18] = Toxicity in female Sprague-Dawley rat assessed as slow respiration at 7.5 mg/kg, po administered once daily for 4 weeks; format: organism-based; settings: in vivo, 672 h
[19] = Toxicity in female Sprague-Dawley rat assessed as irritability at 7.5 mg/kg, po administered once daily for 4 weeks; format: organism-based; settings: in vivo, 672 h
[20] = Toxicity in female Sprague-Dawley rat assessed as irritability at 2.5 mg/kg, po administered once daily for 4 weeks; format: organism-based; settings: in vivo, 672 h
[21] = Toxicity in male Sprague-Dawley rat assessed as irritability at 2.5 mg/kg, po administered once daily for 4 weeks; format: organism-based; settings: in vivo, 672 h
[22] = Toxicity in female Sprague-Dawley rat assessed as piloerection at 7.5 mg/kg, po administered once daily for 4 weeks and measured after 4 weeks; format: organism-based; settings: in vivo, 1344 h, time 8 weeks
[23] = Toxicity in male Sprague-Dawley rat assessed as slow respiration at 7.5 mg/kg, po administered once daily for 4 weeks and measured after 4 weeks; format: organism-based; settings: in vivo, 1344 h, time 8 weeks
[24] = Toxicity in male Sprague-Dawley rat assessed as change in hematology at 2.5 to 7.5 mg/kg, po administered once daily for 4 weeks and measured after 4 weeks; format: organism-based; settings: in vivo, 1344 h, dose 2.5-7.5 mg/kg, time 8 weeks
[25] = Toxicity in male Sprague-Dawley rat assessed as change in urinalysis at 2.5 to 7.5 mg/kg, po administered once daily for 4 weeks and measured after 4 weeks; format: organism-based; settings: in vivo, 1344 h, dose 2.5-7.5 mg/kg, time 8 weeks
[26] = Toxicity in female Sprague-Dawley rat assessed as change in urinalysis at 2.5 to 7.5 mg/kg, po administered once daily for 4 weeks and measured after 4 weeks; format: organism-based; settings: in vivo, 1344 h, dose 2.5-7.5 mg/kg, time 8 weeks
[27] = Toxicity in female Sprague-Dawley rat assessed as corneal epithelial degeneration at 7.5 mg/kg, po administered once daily for 4 weeks; format: organism-based; settings: in vivo, 672 h
[28] = Toxicity in male Sprague-Dawley rat assessed as corneal epithelial degeneration at 7.5 mg/kg, po administered once daily for 4 weeks; format: organism-based; settings: in vivo, 672 h
[29] = Toxicity in male Beagle dog assessed as change in body weight at 0.75 to 2.5 mg/kg, IG administered once daily for 4 weeks and measured after 4 weeks; format: organism-based, Canis lupus familiaris; settings: in vivo, po, 1344 h, dose 0.75-2.5 mg/kg, time 8 weeks
[30] = Toxicity in female Beagle dog assessed as change in food consumption at 0.75 to 2.5 mg/kg, IG administered once daily for 4 weeks and measured after 4 weeks; format: organism-based, Canis lupus familiaris; settings: in vivo, po, 1344 h, dose 0.75-2.5 mg/kg, time 8 weeks
[31] = Toxicity in female Beagle dog assessed as change in blood pressure at 0.75 to 2.5 mg/kg, IG administered once daily for 4 weeks and measured after 4 weeks; format: organism-based, Canis lupus familiaris; settings: in vivo, po, 1344 h, dose 0.75-2.5 mg/kg, time 8 weeks
[32] = Toxicity in male Beagle dog assessed as change in hematology at 0.75 to 2.5 mg/kg, IG administered once daily for 4 weeks and measured after 4 weeks; format: organism-based, Canis lupus familiaris; settings: in vivo, po, 1344 h, dose 0.75-2.5 mg/kg, time 8 weeks
[33] = Toxicity in male Beagle dog assessed as change in bone marrow smears at 0.75 to 2.5 mg/kg, IG administered once daily for 4 weeks and measured after 4 weeks; format: organism-based, Canis lupus familiaris; settings: in vivo, po, 1344 h, dose 0.75-2.5 mg/kg, time 8 weeks
[34] = Toxicity in female Beagle dog assessed as minimal decrease activity at 2.5 mg/kg, IG administered once daily for 4 weeks and measured after 4 weeks; format: organism-based, Canis lupus familiaris; settings: in vivo, po, 1344 h, time 8 weeks

c1cc2c(s1)[C@@H]1CNCCN1CC2
EC50 [1]: 0.022 µM
CLint scaled at 1 µM [2]: < 13.5 mL/min/kg
IC50 [3]: > 50 µM
Activity [4]: Active
Emax [5]: 100%
Emax [6]: 108%
EC50 [7]: 31.5 µM
Activity [8]: 45.3%
Activity [9]: 1.39%
activity at 10 µM [10]: 13.4%
Activity [11]: 8.57%
Activity [12]: 15.4%
Activity [13]: 3.89%
Activity [14]: Non-toxic
Activity [15]: Toxic
Activity [16]: Toxic
Activity [17]: Toxic
Activity [18]: Toxic
Activity [19]: Toxic
Activity [20]: Toxic
Activity [21]: Toxic
Activity [22]: Non-toxic
Activity [23]: Non-toxic
Activity [24]: Non-toxic
Activity [25]: Non-toxic
Activity [26]: Non-toxic
Activity [27]: Toxic
Activity [28]: Toxic
Activity [29]: Non-toxic
Activity [30]: Non-toxic
Activity [31]: Non-toxic
Activity [32]: Non-toxic
Activity [33]: Non-toxic
Activity [34]: Non-toxic

— ChEMBL document CHEMBL6109139, “Rational Design of the First Dual Agonist at Trace Amine-Associated Receptor 1 and 5-HT2C Receptors Based on Binding Pocket Similarity for the Treatment of Schizophrenia and Alzheimer's Disease-Related Psychosis” (J Med Chem, 2025)
